Assay results: patent US10183950B2, “Thienopyrimidine inhibitors of atypical protein kinase C” (Cancer Research Technology Limited, priority 2011, dated 2019)

target: T1, kinase-domain human PKCι (Homo sapiens, UniProt P41743); experiment: PKCι IC50 IMAP fluorescence polarisation assay, kinase-domain enzyme; format: biochemical; conditions: kinase domain PKCi at 2 μM ATP; read-out: IC50 in IMAP assay against kinase domain PKCi
T1 construct: Recombinant, kinase-domain human PKCι is expressed and purified in-house; made in house
T1 sequence (P41743 254-522 limits assumed): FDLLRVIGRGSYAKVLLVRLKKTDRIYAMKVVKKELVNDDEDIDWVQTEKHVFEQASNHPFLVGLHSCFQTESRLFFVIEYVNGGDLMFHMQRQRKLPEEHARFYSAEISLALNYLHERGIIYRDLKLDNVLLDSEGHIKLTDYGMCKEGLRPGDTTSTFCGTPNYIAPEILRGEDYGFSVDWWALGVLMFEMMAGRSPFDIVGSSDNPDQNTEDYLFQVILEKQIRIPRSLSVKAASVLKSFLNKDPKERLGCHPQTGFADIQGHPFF

IC50 [µM] | Structure (SMILES)
0.1 to 1 | Clc1cccc2sc3c(N4CCCNCC4)nc(-c4ccncc4)nc3c12 [compound 371, 9-Chloro-4-[1,4]diazepan-1-yl-2-pyridin-4-yl-benzo[4,5]thieno[3,2-d]pyrimidine]
1 to 10 | c1cnc2sc3c(N4CCCNCC4)nc(-c4ccncc4)nc3c2c1 [compound 377, 4-[1,4]Diazepan-1-yl-2-pyridin-4-yl-pyrido[3′,2′:4,5]thieno[3,2-d]pyrimidine]
1 to 10 | Cc1csc2c(O[C@@H]3CCNC3)nc(-c3ccncc3)nc12 [compound 484, 7-Methyl-2-pyridin-4-yl-4-((R)-pyrrolidin-3-yloxy)-thieno[3,2-d]pyrimidine]
10 to 40 | CC(C)(C)c1ccc(-c2cc3nc(-c4ccncc4)nc(NCCN)c3s2)cc1 [compound 360, N*1*-[6-(4-tert-Butyl-phenyl)-2-pyridin-4-yl-thieno[3,2-d]pyrimidin-4-yl]-ethane-1,2-diamine]

same assay, conditions: kinase domain PKCi at 2 μM ATP; read-out: IC50 in IMAP assay against kinase domain PKCi (Activity)

Structure (SMILES) | IC50 [µM]
N[C@H](CNc1nc(-c2ccncc2)nc2sc3c(c12)CCCCCC3)Cc1ccccc1 [compound 76, (S)-3-Phenyl-N*1*-(2-pyridin-4-yl-5,6,7,8,9,10-hexahydro-11-thia-1,3-diaza-cycloocta[a]inden-4-yl)-propane-1,2-diamine] | 0.1 to 1
NCCNc1nc(-c2ccncc2)nc2sc3c(c12)CCCCCC3 [compound 24, N*1*-(2-Pyridin-4-yl-5,6,7,8,9,10-hexahydro-11-thia-1,3-diaza-cycloocta[a]inden-4-yl)-ethane-1,2-diamine] | 0.1 to 1
Cc1ccccc1C[C@H](N)COc1nc(-c2ccncc2)nc2sc3c(c12)CCCC3 [compound 174, (S)-1-(2-Methyl-benzyl)-2-(2-pyridin-4-yl-5,6,7,8-tetrahydro-benzo[4,5]thieno[2,3-d]pyrimidin-4-yloxy)-ethylamine] | 1 to 10
N[C@H](CCc1ccccc1)COc1nc(-c2ccncc2)nc2sc3c(c12)CCCC3 [compound 167, (R)-3-Phenyl-1-(2-pyridin-4-yl-5,6,7,8-tetrahydro-benzo[4,5]thieno[2,3-d]pyrimidin-4-yloxymethyl)-propylamine] | 10 to 40
CN(C)CCNc1nc(-c2ccncc2)nc2sc3c(c12)CCCC3 [compound 1, N,N-dimethyl-N′-(2-pyridin-4-yl-5,6,7,8-tetrahydro-benzo[4,5]thieno[2,3-d]pyrimidin-4-yl)-ethane-1,2-diamine] | 1 to 10
COc1ccc(C[C@@H](N)COc2nc(-c3ccncc3)nc3sc4c(c23)CCCC4)cc1 [compound 169, (R)-1-(4-Methoxy-benzyl)-2-(2-pyridin-4-yl-5,6,7,8-tetrahydro-benzo[4,5]thieno[2,3-d]pyrimidin-4-yloxy)-ethylamine] | 10 to 40
Cc1n[nH]c(C)c1-c1nc(N2CCCNCC2)c2c3c(sc2n1)CCCC3 [compound 191, 4-[1,4]Diazepan-1-yl-2-(3,5-dimethyl-1H-pyrazol-4-yl)-5,6,7,8-tetrahydro-benzo[4,5]thieno[2,3-d]pyrimidine] | 0.1 to 1
Oc1cccc(CN2CCN(c3nc(-c4ccncc4)nc4sc5c(c34)CCCC5)CC2)c1 [compound 126, 3-[4-(2-Pyridin-4-yl-5,6,7,8-tetrahydro-benzo[4,5]thieno[2,3-d]pyrimidin-4-yl)-piperazin-1-ylmethyl]-phenol] | 10 to 40
N[C@H](COc1nc(-c2ccncc2)nc2sc3c(c12)CCCC3)Cc1cccc(F)c1 [compound 163, (S)-1-(3-Fluoro-benzyl)-2-(2-pyridin-4-yl-5,6,7,8-tetrahydro-benzo[4,5]thieno[2,3-d]pyrimidin-4-yloxy)-ethylamine] | 1 to 10

Results, then the compound that gave them:

IC50 [µM] | Structure (SMILES)
1 to 10 | c1cc(-c2nc(OC[C@@H]3CCCN3)c3c4c(sc3n2)CCCC4)ccn1 [compound 154, 2-Pyridin-4-yl-4-((S)-1-pyrrolidin-2-ylmethoxy)-5,6,7,8-tetrahydro-benzo[4,5]thieno[2,3-d]pyrimidine]
10 to 40 | N[C@H]1C[C@@H]1Nc1nc(-c2ccncc2)nc2sc3c(c12)CCCC3 [compound 11, (1S,2S)-N-(2-Pyridin-4-yl-5,6,7,8-tetrahydro-benzo[4,5]thieno[2,3-d]pyrimidin-4-yl)-cyclopropane-1,2-diamine]
1 to 10 | C[C@@H]1CN[C@@H](C)CN1c1nc(-c2ccncc2)nc2sc3c(c12)CCCC3 [compound 10, 4-((2R,5S)-2,5-Dimethyl-piperazin-1-yl)-2-pyridin-4-yl-5,6,7,8-tetrahydro-benzo[4,5]thieno[2,3-d]pyrimidine]
1 to 10 | CC(C)Cc1csc2nc(-c3ccncc3)nc(NC[C@@H](C)N)c12 [compound 30, (R)-N*1*-(5-Isobutyl-2-pyridin-4-yl-thieno[2,3-d]pyrimidin-4-yl)-propane-1,2-diamine]
1 to 10 | CCc1cc2c(NCCN)nc(-c3ccncc3)nc2s1 [compound 33, N*1*-(6-Ethyl-2-pyridin-4-yl-thieno[2,3-d]pyrimidin-4-yl)-ethane-1,2-diamine]
< 0.1 | Cc1csc2c(NC[C@@H](N)Cc3ccccc3)nc(-c3ccncc3)nc12 [compound 302]
1 to 10 | c1cc(-c2nc(N[C@H]3CCNC3)c3c4c(sc3n2)CCCC4)ccn1 [compound 20, (2-Pyridin-4-yl-5,6,7,8-tetrahydro-benzo[4,5]thieno[2,3-d]pyrimidin-4-yl)-(S)-pyrrolidin-3-yl-amine]
